# Reference: paper PMC5520492, “Inhibition of DNA2 nuclease as a therapeutic strategy targeting replication stress in cancer cells” (Oncogenesis, 2017)
# Key:
# yDna2 = target: T1, yDna2 (Saccharomyces cerevisiae, UniProt P38859); assay: High-throughput fluorescence nuclease assay with yDna2 (triply labeled (dT)30 ssDNA); type: biochemical, yeast; settings: yeast Dna2 0.09 nM; substrate 0.1 μM; Figure 3c; read-out: IC50 (yeast Dna2), dose-response in vitro
# T1 construct: made in house
# Experimental: The screen entailed the use of oligonucleotide (dT)30 having a reporter fluorescent moiety, 6-FAM on the 5′ end, and the dark quenching group, Iowa Black FQ, on the 3′ end. In addition, a second dark quencher ZEN was placed between the 9th and 10th base (Figure 2a). The fluorescence emitted by 6-FAM is quenched by FRET, but it increases when DNA is degraded by Dna2. […] The inhibitory activity of the compounds was determined as a reduction in fluorescent signal compared with the dimethylsulfoxide (DMSO) only control. […] We screened ~50 000 chemical compounds from six different libraries (Supplementary Table S1) to identify chemical inhibitors of the Dna2 nuclease activity. […] The DNA2 nuclease domain is well conserved among eukaryotes, and therefore we reasoned that inhibitors of yDna2 will likely also work with the human counterpart.
# Initial screen, it was performed with yDna2.[22] Then, the top candidate compounds were tested on hDNA2. Identical reaction conditions were used for assaying the nuclease activity of yDna2 and hDNA2. […] The reaction buffer was 20 mM HEPES/NaOH, pH 7.5, 60 mM KCl, 1 mM DTT, 100 μg/ml bovine serum albumin and 0.05% Triton X-100. The nuclease assay was initiated by adding MgCl2 (3 mM final concentration). T5 nuclease was assayed in the buffer (50 mM potassium acetate, pH 7.9, 20 mM Tris-acetate, 10 mM magnesium acetate and 1 mM DTT) provided by the vendor (NEB, Ipswich, MA, USA). The concentration of the fluorogenic substrate was 0.1 μM. The optimal amount of yDna2, hDNA2 and T5 nuclease was determined by utilizing the Kaleidagraph software (Reading, PA, USA) to fit the data according to Michaelis Menton Kinetics (V=V0+Vmax*x/(Km+x)). […] The Z’ value was calculated as previously described.[50] Cell proliferation was determined using 4,6-diamidino-2-phenylindole staining followed by high-throughput microscopy in a 384-well plate setup. In brief, cells were fixed with formaldehyde, washed and stained with 4,6-diamidino-2-phenylindole and the number of nuclei in each well counted by automated microscopy. The data were analyzed as described.[51]
# U2OS SSA reporter cells = assay: Single strand annealing (SSA) GFP reporter assay; type: cell-based, human; settings: 24-h treatment
# Text: The DR-green fluorescent protein, pCAGGS and pCBASce plasmids were kindly provided by Dr Maria Jasin (Memorial Sloan-Kettering Cancer Center, New York, NY, USA). U2OS cells containing a single copy of the HR repair reporter substrate DR-green fluorescent protein were generated as previously described.[48] Single stand annealing reporter cells were kindly provided by Dr Jeremy Stark (Beckman Research Institute of the City of Hope, Duarte, CA, USA).[49] Details in Supplementary Materials and Methods.
# Figure S6. NSC-105808 reduces DSB repair by SSA. Cells were transfected with EGFP or I-SceI plasmids for 24 hrs and then cultured for an additional 48 hr before analysis by flow cytometry (top). Treatment with NSC-105808 was for 24 hrs prior to flow cytometry. Bar graph showing SSA efficiency in cells treated with NSC-105808 as compared to control cells treated with DMSO. The average data from three independent experiments are shown, with the error bars representing standard deviation (n=3, bottom).
# The GFP expressing plasmid (pEGFP-C1) was used for transfection efficiency control. Cells were transfected with the pCBASce plasmid. […] Efficiency of HR and SSA was calculated by normalizing I-SceI-induced GFP expression with EGFP transfection-induced GFP expression. […]
# U2OS cells = assay: Cell-based viability/proliferation screen, DAPI staining and automated microscopy; set-up: species or system human; settings: for IC50: Homo sapiens, 10 pM to 10 μM, DAPI staining, read-out: IC50 from Screening Cell Based
# Experimental: The biological effectiveness of the 39 compounds selected by re-screening was determined by measuring their half maximal inhibitory concentration (IC50) biochemically and in a cell-based system using the 384-well platform (Supplementary Table S2). […] We conducted the viability assay in duplicate on three separate occasions using a concentration range of 10 pM to 10 μM for each compound. Cell proliferation was determined using 4,6-diamidino-2-phenylindole staining and microscopy.
# In addition, a second dark quencher ZEN (N,N-diethyl-4-(4-nitronaphthalen-1-ylazo)-phenylamine, absorption max.=532 nm) is placed between 9th and 10th base (Figure 2a). Initial screen, it was performed with yDna2.[22] Then, the top candidate compounds were tested on hDNA2. Identical reaction conditions were used for assaying the nuclease activity of yDna2 and hDNA2. […] The reaction buffer was 20 mM HEPES/NaOH, pH 7.5, 60 mM KCl, 1 mM DTT, 100 μg/ml bovine serum albumin and 0.05% Triton X-100. The nuclease assay was initiated by adding MgCl2 (3 mM final concentration). T5 nuclease was assayed in the buffer (50 mM potassium acetate, pH 7.9, 20 mM Tris-acetate, 10 mM magnesium acetate and 1 mM DTT) provided by the vendor (NEB, Ipswich, MA, USA). The concentration of the fluorogenic substrate was 0.1 μM. The optimal amount of yDna2, hDNA2 and T5 nuclease was determined by utilizing the Kaleidagraph software (Reading, PA, USA) to fit the data according to Michaelis Menton Kinetics (V=V0+Vmax*x/(Km+x)). […] All the compounds were dissolved in DMSO and DMSO alone was used as control; the final concentration of DMSO was at 3.33% for protein-based assay and 0.1% for cell-based assay. The Z’ value was calculated as previously described.[50] Cell proliferation was determined using 4,6-diamidino-2-phenylindole staining followed by high-throughput microscopy in a 384-well plate setup. In brief, cells were fixed with formaldehyde, washed and stained with 4,6-diamidino-2-phenylindole and the number of nuclei in each well counted by automated microscopy. The data were analyzed as described.[51]
# T1 sequence (P38859 whole entry): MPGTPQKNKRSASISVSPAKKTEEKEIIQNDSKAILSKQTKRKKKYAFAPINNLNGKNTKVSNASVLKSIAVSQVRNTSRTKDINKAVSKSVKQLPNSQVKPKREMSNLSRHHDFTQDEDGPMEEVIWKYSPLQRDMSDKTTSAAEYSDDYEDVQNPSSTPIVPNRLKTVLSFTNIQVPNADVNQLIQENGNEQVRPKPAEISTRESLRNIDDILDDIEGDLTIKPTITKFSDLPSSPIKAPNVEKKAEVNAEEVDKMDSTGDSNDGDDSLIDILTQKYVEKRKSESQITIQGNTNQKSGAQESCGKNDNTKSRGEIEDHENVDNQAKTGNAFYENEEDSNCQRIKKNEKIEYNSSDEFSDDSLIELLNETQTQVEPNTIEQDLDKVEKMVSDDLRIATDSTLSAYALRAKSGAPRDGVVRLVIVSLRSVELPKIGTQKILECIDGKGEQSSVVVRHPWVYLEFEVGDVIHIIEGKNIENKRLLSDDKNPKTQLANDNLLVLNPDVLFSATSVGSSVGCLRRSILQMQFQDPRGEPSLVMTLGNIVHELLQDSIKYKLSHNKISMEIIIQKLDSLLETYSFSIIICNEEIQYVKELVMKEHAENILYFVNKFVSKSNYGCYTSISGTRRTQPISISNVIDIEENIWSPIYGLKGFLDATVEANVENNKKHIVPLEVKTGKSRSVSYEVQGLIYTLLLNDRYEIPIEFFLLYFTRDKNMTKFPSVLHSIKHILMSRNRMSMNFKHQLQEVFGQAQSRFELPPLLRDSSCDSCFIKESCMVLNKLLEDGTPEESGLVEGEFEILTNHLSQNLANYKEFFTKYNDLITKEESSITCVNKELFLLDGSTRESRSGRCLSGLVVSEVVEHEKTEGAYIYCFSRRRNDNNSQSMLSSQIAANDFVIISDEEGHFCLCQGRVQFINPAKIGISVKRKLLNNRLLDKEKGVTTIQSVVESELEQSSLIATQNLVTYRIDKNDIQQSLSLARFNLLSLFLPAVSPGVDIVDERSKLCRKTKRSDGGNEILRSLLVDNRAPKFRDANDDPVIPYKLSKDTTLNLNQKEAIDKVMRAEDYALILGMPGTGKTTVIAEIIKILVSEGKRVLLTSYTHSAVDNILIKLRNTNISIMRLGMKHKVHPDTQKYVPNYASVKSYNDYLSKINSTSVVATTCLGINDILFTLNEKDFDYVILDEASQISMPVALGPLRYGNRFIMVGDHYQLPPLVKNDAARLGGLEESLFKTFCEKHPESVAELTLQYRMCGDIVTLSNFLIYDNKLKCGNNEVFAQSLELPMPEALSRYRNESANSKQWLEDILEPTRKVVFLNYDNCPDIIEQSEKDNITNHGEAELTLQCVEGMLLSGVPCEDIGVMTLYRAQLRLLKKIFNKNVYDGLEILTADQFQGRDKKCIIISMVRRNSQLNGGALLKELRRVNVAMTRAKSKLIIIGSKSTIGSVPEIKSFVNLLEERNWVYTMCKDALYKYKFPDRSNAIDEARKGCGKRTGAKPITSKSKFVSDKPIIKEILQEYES
SMILES,IC50 (yDna2),DSB repair by single stand annealing (U2OS SSA reporter cells),IC50 (U2OS cells),Effect of longer exposure on cells (U2OS cells; exposure >48 h)
"NC1=C(Br)C(=O)c2ncccc2C1=O [NSC-105808, 6-amino-7-bromoquinoline-5,8-dione]",2000 nM,significantly reduced,2700 nM,causes cell death
"O=C1C(=O)c2cc([N+](=O)[O-])ccc2-c2ccccc21 [NSC-5195242, 2-nitrophenanthrene-9,10-dione]",3900 nM,,1000 nM,
